In ChEMBL document CHEMBL1147144, “Novel styrylpyridines as probes for SPECT imaging of amyloid plaques” (J Med Chem, 2007):
Each block holds one compound with its values, some of them ahead of it.

Columns and labels:
[1] = target: Amyloid-beta precursor protein (Homo sapiens, UniProt P05067); assay: Displacement of […] from Abeta peptide plaques in Alzheimer's disease patient brain
Spleen [2] = assay: Biodistribution in ICR mouse spleen at 5 to 10 uCi, iv after 1 hr; format: ADME, organism-based; details: in vivo
Kidney [3] = assay: Biodistribution in ICR mouse kidney at 5 to 10 uCi, iv after 1 hr; format: ADME, organism-based; details: in vivo
Muscle tissue [4] = assay: Biodistribution in ICR mouse muscle at 5 to 10 uCi, iv after 2 mins; format: ADME, organism-based; details: in vivo
Brain [5] = assay: Biodistribution in ICR mouse brain at 5 to 10 uCi, iv after 30 mins; format: ADME, organism-based; details: in vivo, 0.5 h
Liver [6] = assay: Biodistribution in ICR mouse liver at 5 to 10 uCi, iv after 1 hr; format: ADME, organism-based; details: in vivo
[7] = Partition coefficient, log P at pH 7.4; format: physicochemical; details: octanol/water
Brain [8] = assay: Ratio of drug distribution in brain after 2 mins to 30 mins in ICR mouse at 5 to 10 uCi, iv; format: ADME, organism-based; details: in vivo
Lung [9] = assay: Biodistribution in ICR mouse lung at 5 to 10 uCi, iv after 1 hr; format: ADME, organism-based; details: in vivo
Thyroid gland [10] = assay: Biodistribution in ICR mouse thyroid at 5 to 10 uCi, iv after 2 hrs; format: ADME, organism-based; details: in vivo
Kidney [11] = assay: Biodistribution in ICR mouse kidney at 5 to 10 uCi, iv after 30 mins; format: ADME, organism-based; details: in vivo, 0.5 h
Thyroid gland [12] = assay: Biodistribution in ICR mouse thyroid at 5 to 10 uCi, iv after 30 mins; format: ADME, organism-based; details: in vivo, 0.5 h
Spleen [13] = assay: Biodistribution in ICR mouse spleen at 5 to 10 uCi, iv after 2 mins; format: ADME, organism-based; details: in vivo
Kidney [14] = assay: Biodistribution in ICR mouse kidney at 5 to 10 uCi, iv after 2 hrs; format: ADME, organism-based; details: in vivo
Brain [15] = assay: Biodistribution in ICR mouse brain at 5 to 10 uCi, iv after 2 hrs; format: ADME, organism-based; details: in vivo
Brain [16] = assay: Biodistribution in ICR mouse brain at 5 to 10 uCi, iv after 1 hr; format: ADME, organism-based; details: in vivo
Blood [17] = assay: Biodistribution in ICR mouse blood at 5 to 10 uCi, iv after 2 hrs; format: ADME, organism-based; details: in vivo
Heart [18] = assay: Biodistribution in ICR mouse heart at 5 to 10 uCi, iv after 2 mins; format: ADME, organism-based; details: in vivo
Brain [19] = assay: Biodistribution in ICR mouse brain at 5 to 10 uCi, iv after 2 mins; format: ADME, organism-based; details: in vivo
Zone of skin [20] = assay: Biodistribution in ICR mouse skin at 5 to 10 uCi, iv after 2 hrs; format: ADME, organism-based; details: in vivo
Lung [21] = assay: Biodistribution in ICR mouse lung at 5 to 10 uCi, iv after 2 hrs; format: ADME, organism-based; details: in vivo
Blood [22] = assay: Biodistribution in ICR mouse blood at 5 to 10 uCi, iv after 1 hr; format: ADME, organism-based; details: in vivo
Heart [23] = assay: Biodistribution in ICR mouse heart at 5 to 10 uCi, iv after 30 mins; format: ADME, organism-based; details: in vivo, 0.5 h
Lung [24] = assay: Biodistribution in ICR mouse lung at 5 to 10 uCi, iv after 30 mins; format: ADME, organism-based; details: in vivo, 0.5 h
Spleen [25] = assay: Biodistribution in ICR mouse spleen at 5 to 10 uCi, iv after 30 mins; format: ADME, organism-based; details: in vivo, 0.5 h
Spleen [26] = assay: Biodistribution in ICR mouse spleen at 5 to 10 uCi, iv after 2 hrs; format: ADME, organism-based; details: in vivo
Blood [27] = assay: Biodistribution in ICR mouse blood at 5 to 10 uCi, iv after 30 mins; format: ADME, organism-based; details: in vivo, 0.5 h
Blood [28] = assay: Biodistribution in ICR mouse blood at 5 to 10 uCi, iv after 2 mins; format: ADME, organism-based; details: in vivo
Muscle tissue [29] = assay: Biodistribution in ICR mouse muscle at 5 to 10 uCi, iv after 1 hr; format: ADME, organism-based; details: in vivo
Zone of skin [30] = assay: Biodistribution in ICR mouse skin at 5 to 10 uCi, iv after 30 mins; format: ADME, organism-based; details: in vivo, 0.5 h
Lung [31] = assay: Biodistribution in ICR mouse lung at 5 to 10 uCi, iv after 2 mins; format: ADME, organism-based; details: in vivo
Liver [32] = assay: Biodistribution in ICR mouse liver at 5 to 10 uCi, iv after 2 hrs; format: ADME, organism-based; details: in vivo
Muscle tissue [33] = assay: Biodistribution in ICR mouse muscle at 5 to 10 uCi, iv after 2 hrs; format: ADME, organism-based; details: in vivo
Thyroid gland [34] = assay: Biodistribution in ICR mouse thyroid at 5 to 10 uCi, iv after 1 hr; format: ADME, organism-based; details: in vivo
Thyroid gland [35] = assay: Biodistribution in ICR mouse thyroid at 5 to 10 uCi, iv after 2 mins; format: ADME, organism-based; details: in vivo
Liver [36] = assay: Biodistribution in ICR mouse liver at 5 to 10 uCi, iv after 2 mins; format: ADME, organism-based; details: in vivo
Heart [37] = assay: Biodistribution in ICR mouse heart at 5 to 10 uCi, iv after 1 hr; format: ADME, organism-based; details: in vivo
Kidney [38] = assay: Biodistribution in ICR mouse kidney at 5 to 10 uCi, iv after 2 mins; format: ADME, organism-based; details: in vivo
Liver [39] = assay: Biodistribution in ICR mouse liver at 5 to 10 uCi, iv after 30 mins; format: ADME, organism-based; details: in vivo, 0.5 h
Heart [40] = assay: Biodistribution in ICR mouse heart at 5 to 10 uCi, iv after 2 hrs; format: ADME, organism-based; details: in vivo
Muscle tissue [41] = assay: Biodistribution in ICR mouse muscle at 5 to 10 uCi, iv after 30 mins; format: ADME, organism-based; details: in vivo, 0.5 h
Zone of skin [42] = assay: Biodistribution in ICR mouse skin at 5 to 10 uCi, iv after 2 mins; format: ADME, organism-based; details: in vivo
Zone of skin [43] = assay: Biodistribution in ICR mouse skin at 5 to 10 uCi, iv after 1 hr; format: ADME, organism-based; details: in vivo

Amyloid-beta precursor protein, sequence (P05067 whole entry): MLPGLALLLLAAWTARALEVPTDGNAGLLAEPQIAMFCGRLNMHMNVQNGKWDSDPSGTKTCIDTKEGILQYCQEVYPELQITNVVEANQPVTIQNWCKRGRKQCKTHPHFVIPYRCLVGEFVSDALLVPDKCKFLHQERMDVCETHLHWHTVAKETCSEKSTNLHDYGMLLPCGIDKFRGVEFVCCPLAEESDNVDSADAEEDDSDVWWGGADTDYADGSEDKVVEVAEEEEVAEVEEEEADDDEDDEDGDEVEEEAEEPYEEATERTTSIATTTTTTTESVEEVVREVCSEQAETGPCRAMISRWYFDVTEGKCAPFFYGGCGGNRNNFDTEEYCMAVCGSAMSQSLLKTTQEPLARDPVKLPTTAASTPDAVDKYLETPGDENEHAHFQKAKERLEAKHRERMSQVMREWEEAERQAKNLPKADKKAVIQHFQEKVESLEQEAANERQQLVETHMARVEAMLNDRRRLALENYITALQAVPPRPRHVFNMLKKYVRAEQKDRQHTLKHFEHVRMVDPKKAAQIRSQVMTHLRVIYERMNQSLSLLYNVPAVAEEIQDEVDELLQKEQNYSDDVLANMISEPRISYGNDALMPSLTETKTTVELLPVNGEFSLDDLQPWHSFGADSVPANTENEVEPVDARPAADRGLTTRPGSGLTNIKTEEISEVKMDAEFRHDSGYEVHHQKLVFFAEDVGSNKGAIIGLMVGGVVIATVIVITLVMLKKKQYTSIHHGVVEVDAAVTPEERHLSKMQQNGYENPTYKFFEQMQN

Ki [1]: 21 nM
SMILES: Oc1ccc(/C=C/c2cnc(OCCOCCOCCF)c(I)c2)cc1

Drug uptake (Spleen [2]): 0.87 % ID/g
Drug uptake (Kidney [3]): 2.16 % ID/g
Drug uptake (Muscle tissue [4]): 1.15 % ID/g
Drug uptake (Brain [5]): 0.88 % ID/g
Drug uptake (Liver [6]): 5.62 % ID/g
logD [7]: 2.2
Ratio (Brain [8]): 9.13
Drug uptake (Lung [9]): 1.76 % ID/g
Drug uptake (Thyroid gland [10]): 99.9 % ID/g
Drug uptake (Kidney [11]): 3.73 % ID/g
Drug uptake (Thyroid gland [12]): 17.2 % ID/g
Drug uptake (Spleen [13]): 4.08 % ID/g
Drug uptake (Kidney [14]): 1.53 % ID/g
Drug uptake (Brain [15]): 0.15 % ID/g
Drug uptake (Brain [16]): 0.26 % ID/g
Drug uptake (Blood [17]): 1.96 % ID/g
Drug uptake (Heart [18]): 7.16 % ID/g
Drug uptake (Brain [19]): 8.04 % ID/g
Drug uptake (Zone of skin [20]): 1.43 % ID/g
Drug uptake (Lung [21]): 1.58 % ID/g
Drug uptake (Blood [22]): 1.81 % ID/g
Drug uptake (Heart [23]): 1.5 % ID/g
Drug uptake (Lung [24]): 2.67 % ID/g
Drug uptake (Spleen [25]): 1.34 % ID/g
Drug uptake (Spleen [26]): 1.08 % ID/g
Drug uptake (Blood [27]): 3.08 % ID/g
Drug uptake (Blood [28]): 4.14 % ID/g
Drug uptake (Muscle tissue [29]): 0.42 % ID/g
Drug uptake (Zone of skin [30]): 1.86 % ID/g
Drug uptake (Lung [31]): 7.43 % ID/g
Drug uptake (Liver [32]): 3.41 % ID/g
Drug uptake (Muscle tissue [33]): 0.38 % ID/g
Drug uptake (Thyroid gland [34]): 36.7 % ID/g
Drug uptake (Thyroid gland [35]): 6.31 % ID/g
Drug uptake (Liver [36]): 20.8 % ID/g
Drug uptake (Heart [37]): 0.88 % ID/g
Drug uptake (Kidney [38]): 11.5 % ID/g
Drug uptake (Liver [39]): 12.6 % ID/g
Drug uptake (Heart [40]): 0.76 % ID/g
Drug uptake (Muscle tissue [41]): 0.91 % ID/g
Drug uptake (Zone of skin [42]): 0.95 % ID/g
Drug uptake (Zone of skin [43]): 1.29 % ID/g
SMILES: CNc1ccc(/C=C/c2cnc(OCCO)c([125I])c2)cc1

Drug uptake (Spleen [2]): 0.5 % ID/g
Drug uptake (Kidney [3]): 2.94 % ID/g
Drug uptake (Muscle tissue [4]): 1.01 % ID/g
Drug uptake (Brain [5]): 0.26 % ID/g
Drug uptake (Liver [6]): 2.38 % ID/g
logD [7]: 2.2
Drug uptake (Lung [9]): 1.34 % ID/g
Drug uptake (Thyroid gland [10]): 16 % ID/g
Drug uptake (Kidney [11]): 10 % ID/g
Drug uptake (Thyroid gland [12]): 3.99 % ID/g
Drug uptake (Spleen [13]): 4.2 % ID/g
Drug uptake (Kidney [14]): 2.5 % ID/g
Drug uptake (Brain [15]): 0.06 % ID/g
Drug uptake (Brain [16]): 0.09 % ID/g
Drug uptake (Blood [17]): 1.56 % ID/g
Drug uptake (Heart [18]): 6.66 % ID/g
Drug uptake (Brain [19]): 0.99 % ID/g
Drug uptake (Zone of skin [20]): 0.37 % ID/g
Drug uptake (Lung [21]): 1.02 % ID/g
Drug uptake (Blood [22]): 1.29 % ID/g
Drug uptake (Heart [23]): 1.35 % ID/g
Drug uptake (Lung [24]): 3.1 % ID/g
Drug uptake (Spleen [25]): 1.28 % ID/g
Drug uptake (Spleen [26]): 0.5 % ID/g
Drug uptake (Blood [27]): 3.92 % ID/g
Drug uptake (Blood [28]): 10.1 % ID/g
Drug uptake (Muscle tissue [29]): 0.21 % ID/g
Drug uptake (Zone of skin [30]): 1.36 % ID/g
Drug uptake (Lung [31]): 14.2 % ID/g
Drug uptake (Liver [32]): 2.63 % ID/g
Drug uptake (Muscle tissue [33]): 0.12 % ID/g
Drug uptake (Thyroid gland [34]): 13 % ID/g
Drug uptake (Thyroid gland [35]): 4.38 % ID/g
Drug uptake (Liver [36]): 18.3 % ID/g
Drug uptake (Heart [37]): 0.65 % ID/g
Drug uptake (Kidney [38]): 20.4 % ID/g
Drug uptake (Liver [39]): 5.15 % ID/g
Drug uptake (Heart [40]): 0.51 % ID/g
Drug uptake (Muscle tissue [41]): 0.59 % ID/g
Drug uptake (Zone of skin [42]): 0.64 % ID/g
Drug uptake (Zone of skin [43]): 0.62 % ID/g
SMILES: OCCOc1ncc(/C=C/c2ccc(O)cc2)cc1[125I]

Ki [1]: 3.6 nM
SMILES: CN(C)c1ccc(/C=C/c2cnc(OCCO)c(Br)c2)cc1
